Source: patent publication US20240262844A1, “PYRIDINIUM SALTS AND METHODS OF USE” (UNIVERSITY OF WYOMING, priority 2023, published 2024)
Counter-ions that a name gives are not always drawn.

System: HEK293T cells
Test: In-situ chemoproteomic tryptophan profiling of live HEK293T cells (peptide-level enrichment)
Type: cell-based, Human
Description: Cell culture and in-situ tryptophan probe treatment: Cell lines were cultured at 37° C. with 5% C02. Human embryonic kidney 293 cells expressing a mutant version of the SV40 large T antigen (HEKT293T cells) were grown in Dulbecco's Modified Eagle Medium (DMEM, Gibco) supplemented with 10% fetal bovine serum and 1% penicillin/streptomycin. For in-situ labeling, cells were grown to 90% confluence, washed with Dulbecco's phosphate buffered saline (DPBS), treated with 100x stocks of the tryptophan probes (the pyridinium salts) in OptiMem (GibCo) to generate final concentrations (0 μM, 1 μM, 10 μM, and 100 μM) in 1% dimethylsulfoxide (DMSO). Cells were incubated for 1 hour at 37° C. with 5% C02 followed by photo-activation at the respective wavelengths for 20 minutes at 4° C. Cells were harvested with a cell scraper, washed 3× with DPBS, and pellets were stored at −80° C. until further use. The following light sources were used for photo-activation: • Pyridinium salt 1a (also called, probe 1a): wavelength=302 nm; light source=Analytikjena, UVP 3UV Lamp, 8W. • Pyridinium salt 1b (also called, probe 1b): wavelength=320 nm; light source=Analytikjena, UVP 3UV Lamp, 8W, equipped with 320 nm long-pass filter. • Pyridinium salt 2b (also called, probe 2b): wavelength=440 nm; light source=Kessil PR-160L-440 nm LED, 45W. • Pyridinium salt 2d (also called, probe 2d): wavelength=440 nm; light source=Kessil PR-160L-440 nm LED, 45W.
In-situ tryptophan probe sample processing for peptide-level characterization: Cell pellets were lysed via sonication (QSonica) at 50% amplitude, 2 seconds ON, 3 seconds OFF, 30 seconds in 40 mM HEPES pH 7.5 (4-(2-hydroxyethyl)-1-piperazineethanesulfonic acid), 1.5 mM magnesium chloride (MgCl2), 1% Sodium dodecyl sulfate (SDS), 0.8% NP-40 (also known as nonyl phenoxypolyethoxylethanol), and 1x protease inhibitors (Thermo). Protein concentration was determined by BCA (Pierce). 400 μg protein lysate were taken for copper-catalyzed azide-alkyne cycloaddition (CuAAC) reactions with 100 μM of the acid cleavable DAPBS Biotin Alkyne (Click Chemistry Tools), 250 μM copper sulfate (CuSO4), 500 μM BTTP (C20H34N10O2) (Click Chemistry Tools), and 2.5 mM ascorbate and incubated for 60 minutes at R.T. Samples were precipitated with methanol:chloroform and re-suspended in 50 mM HEPES pH 8.0 containing 1% RapiGest SF (Waters). The samples were reduced with 10 mM dithiothreitol (DTT) (Pierce) and alkylated with 25 mM iodoacetamide (Pierce). The samples were diluted down to 0.1% RapiGest SF and treated with 4 μg Trypsin/LysC (Promega) at 37° C. for 16 hours. The digested peptides were than labeled with isobaric tandem mass tag (TMT) reagents (Thermo) as specified by the manufacturer. The labeled peptides were then combined, concentrated to remove acetonitrile, and re-suspended in 50 mM HEPES pH 8.0 containing 0.2% SDS. The labeled peptides were then treated with 100 μL Neutravidin resin as a 50% slurry (Peirce) for 16 hours at R.T. The following day, the Neutravidin resin was washed extensively with 50 mM HEPES pH 8.0 containing 0.2% SDS (3×), 50 mM HEPES pH 8.0 (5x), and double-distilled water (ddH2O) (5×). The bound peptides were then cleaved from the resin by incubating with 100 μL 10% formic acid for 30 minutes (2×).
Quantitative proteomics by two-dimensional nano liquid chromatography-tandem mass spectrometry (nLC-MS/MS): For protein-level characterization, the TMT-labeled sample were reconstituted in 0.1% formic acid (FA)/2% acetonitrile for offline high-pH reversed phase separation (RP10) using a Dionex UltiMate 3000 high-performance liquid chromatography (HPLC) system with fraction collection using Chromeleon v.6.8 (Thermo) software. Separation was achieved on a Waters Xbridge C18 3.5 μm 2.1×150 mm HPLC column (Waters) using a flow rate of 250 μL min-1 and the following ternary gradient and conditions: mobile phase A=water (HPLC grade), mobile phase B=acetonitrile (HPLC grade), and mobile phase C=200 mM ammonium acetate, pH 10. […]

[1] = about 100 μM probe, 60 min 37° C., 440 nm 20 min 4° C.

**Q.** `COc1ccc2cc(-c3cc(C)[n+](N(C)C(=O)OCCCCCCN=[N+]=[N-])c(C)c3)ccc2c1` [Pyridinium salt 2d, 1-((((6-azidohexyl)oxy)carbonyl)(methyl)amino)-4-(6-methoxynaphthalen-2-yl)-2,6-dimethylpyridin-1-ium tetrafluoroborate] was tested. Which “probe concentration giving measurable two-fold enrichment of Trp-modified peptides” value (440 nm photoirradiation) did it give?
**A.** about 10 μM

**Q.** What about the “number of Trp-modified peptide fragments showing dose-response behavior” value [1] of the same compound?
**A.** 290

**Q.** What about the “number of unique proteins corresponding to Trp-modified peptide fragments” value [1] of the same compound?
**A.** 209

**Q.** What about the “number of unique peptides harboring a tryptophan modification” value (chemoselectivity profile, in situ) of the same compound?
**A.** 221

**Q.** What about the plasma membrane permeation (inferred from subcellular localization of labeled proteins) of the same compound?
**A.** readily crosses the plasma membrane

**Q.** What about the “thermal stability under whole cell culture conditions” value (no peptide enrichment without 440 nm photoirradiation) of the same compound?
**A.** robust thermal stability

**Q.** And the “selectivity for tryptophan, relative amino acid frequency taken into account” value (versus His, Tyr, Cys modifications, in situ)?
**A.** about 82%
